# According to PubChem BioAssay (NCI):
#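 Protocol summary: plate cells (96-well), add compound at 5 concentrations, incubate 48 h, interpolate endpoints linearly. At the TGI there is no net growth.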 Where a SMILES comes first, the peptide text is derived from it. The star is where a group is joined. Cbz = O=C(OCc1ccccc1)*; Boc = CC(C)(C)OC(=O)*; OBn = c1ccc(CO*)cc1
# How the values were obtained:
# Assay in all cases: NCI anticancer screen, dose series, 48 h
# HT29 colon = system: HT29 colon
# MALME-3M melanoma = system: MALME-3M melanoma
# CCRF-CEM leukemia = system: CCRF-CEM leukemia
# NCI-H23 lung = system: NCI-H23 lung
# UACC-62 melanoma = system: UACC-62 melanoma
# T-47D breast = system: T-47D breast
# UACC-257 melanoma = system: UACC-257 melanoma
# SK-MEL-5 melanoma = system: SK-MEL-5 melanoma
Compound,TGI (HT29 colon) [µM],TGI (MALME-3M melanoma) [µM],TGI (CCRF-CEM leukemia) [µM],TGI (NCI-H23 lung) [µM],TGI (UACC-62 melanoma) [µM],TGI (T-47D breast) [µM],TGI (UACC-257 melanoma) [µM],TGI (SK-MEL-5 melanoma) [µM]
CC(NC(=O)C(NC(=O)OC(C)(C)C)C(C)C)C(=O)N1CCCC1C(=O)NCC(=O)NC(C(=O)NCC(=O)OCc1ccccc1)C(C)C (stereo not drawn) (Boc-VAPGVG-OBn; configuration not given here),> 100,> 100,> 100,> 100,> 100,> 100,> 100,–
O=C1C=C(Br)c2c(Br)sc(Br)c21,44.5,35.2,–,25.6,29.2,31.4,12.6,31.4
COc1ccc2c(c1)n([O-])c(C#N)c(N1CCN(c3ccc([N+](=O)[O-])cc3)CC1)[n+]2=O,> 100,19.1,> 100,> 100,> 100,14.8,> 100,19.7
COc1ccc(N=N/C(=N/NC(=O)c2ccccc2)c2ccc(N(CCC#N)CCC#N)cc2C)cc1,55,> 100,> 100,> 100,> 100,> 100,> 100,> 100
COC(=O)/C=C(/C(=O)OC)c1c(C)c(C)c2c(C)cc(C)cc(C)c1-2,34.3,> 100,> 100,> 100,> 100,> 100,> 100,> 100
COc1cc(CC2c3cc(OC)c(OC)cc3CCN2C)c(Oc2cc3c(cc2OC)-c2c(O)c(OC)cc4c2C(C3)N(C)CC4)cc1OC (stereo not drawn),36.6,53.8,42.8,42.8,40.1,55,37.4,32.8
COC(=O)/C=C1\CCC(C)(C(=O)NS(=O)(=O)c2ccc(C)cc2)C1(C)C (stereo not drawn),–,> 100,> 100,> 100,> 100,> 100,> 100,> 100
Oc1[nH]c2ccccc2c1N=Nc1nc(-c2ccc(Cl)c(Cl)c2)cs1,> 100,–,–,> 100,–,> 100,> 100,> 100
O=[N+]([O-])c1ccc(N=Nc2c(O)c(S(=O)(=O)O)cc3cc(S(=O)(=O)O)ccc23)cc1,> 100,> 100,> 100,> 100,> 100,> 100,> 100,> 100
Nc1ccccc1N/C=C\C(=O)C(Cl)(Cl)Cl,34.6,> 100,> 100,59.9,35.9,43.1,64.2,> 100
CSC1=C(C#N)C(=O)N(c2ccc(C)cc2)C(=S)C1C#N (stereo not drawn),> 100,> 100,> 100,–,> 100,–,> 100,> 100
[N-]=[N+]=NCc1cccc(Nc2cc(=O)[nH]c(=O)[nH]2)c1,> 100,> 100,> 100,> 100,> 100,> 100,> 100,> 100
C=CCSC1=N/C(=C\c2ccccc2)C(=O)N1CC=C,> 66.8,> 100,49.8,> 100,> 100,98.6,> 82.5,37.3
N#Cc1c(N2CCCC2)ncn(Cc2ccccc2)c1=O,> 100,> 100,> 100,–,> 100,> 100,> 100,> 100
O=S1(=O)c2ccccc2C(=NO)c2ccccc21,> 100,–,> 100,> 100,> 100,> 100,> 100,> 100
[N-]=[N+]=CC(=O)OCC1SCCCS1,> 100,> 100,> 100,> 100,> 100,–,> 100,> 100
COc1ccc(-c2c(N)n(-c3cccc(C(=O)O)c3)c(=O)c3cc([N+](=O)[O-])ccc23)cc1,> 100,–,> 100,> 100,> 100,> 100,> 100,> 100
CCOc1nc(-c2ccccc2)cc(-c2ccc(N3CCOCC3)cc2)c1C#N,> 100,> 100,> 100,> 100,–,–,> 100,> 100
COC(=O)C(Cc1ccc(O)cc1)NC(=O)C(CC(=O)OCc1ccccc1)NC(=O)OCc1ccccc1 (stereo not drawn) (Cbz-Asp(OBn)-Tyr-OMe; configuration not given here),32.2,> 100,> 100,66.1,–,40,45.5,34.1
COC(=O)c1cc(C#N)[nH]c1-c1ccc(C)s1,–,–,> 100,> 100,> 100,> 100,> 100,–
OC1(c2cc3ccccc3s2)CCCCC1,54.5,–,66.7,> 100,> 100,–,> 100,> 100
O=c1[nH]nc(-c2ccccc2)n1/N=C/c1c(O)ccc2ccccc12,> 100,–,> 100,> 100,> 100,–,> 100,> 100
O=c1c2cc(I)ccc2nc(Sc2ncccc2[N+](=O)[O-])n1Cc1ccccc1,> 100,–,> 100,> 100,> 100,> 100,> 100,91.6
Cc1ccc(N2CCc3c(C)c(C#N)c4nc5ccccc5n4c32)cc1,> 100,> 100,> 100,> 100,> 100,–,> 100,> 100
